Reference: patent publication US8946201B2, “Methods for inhibiting TGF-β” (Saint Louis University, priority 2007, dated 2015)

How the values were obtained:
PAI-1 expression = assay: TGF-β1-induced PAI-1 expression, Northern blot, BAEC; type: cell-based, bovine; conditions: 50 μg/ml, TGF-β1 2 to 100 pM
Procedure: (A, B, C, D, E, F) Cells were treated with 50 μg/ml cholesterol (A, B, C, D) and 50 μg/ml LDL (D) at 37° C. for 1 hr or with 1 μM fluvastatin or lovastatin (E) or several concentrations of fluvastatin (F) at 37° C. for 16 hr and then further incubated with increasing concentrations (as indicated) of TGF-β1 (A, B, C, E) or 50 pM TGF-β1 (D,F) for 2 hr. Northern blot analysis of PAI-1 and G3PDH was performed. A representative of a total of three analyses is shown (a). The relative intensities of the transcripts were quantified with a PhosphoImager. The ratio of the relative intensities of PAI-1 and G3PDH transcripts in cells treated without TGF-β1 and cholesterol, LDL or statins on the blot was taken as 1 fold or 100% of PAI-1 expression. The quantitative data from three independent analyses is shown (b). […] (G) Mv1Lu cells stably expressing a luciferase reporter gene driven by the PAI-1 promoter (MLECs-clone 32) were treated with increasing concentrations (as indicated) of cholesterol at 37 EC for 1 hr (a) or with 1 μM lovastatin at 37° C. for 16 hr (b) and then further incubated with 50 pM TGF-β for 7 hr. The luciferase activity in cells treated without cholesterol was taken as 100% (a). […] (H) Cells were incubated with 0.0625 and 0.125 pM TGF-β1 in the presence of increasing concentrations of cholesterol, as indicated. […] The experiments were carried out in triplicate.

TβR-I and TβR-II = assay: Western blot of TβR-I and TβR-II protein levels, Mv1Lu cells; type: cell-based, mink; conditions: 50 μg/ml
Procedure: Cells grown to near confluence on 12-well cluster dishes were treated with cholesterol or LDL in serum-free DMEM (vol.=0.5 ml/well) at 37° C. for 1 hr. The treated cells were further incubated with 50 or 100 pM TGF-β1 at 37° C. for 30 min (for determining Smad2 phosphorylation) or for 2 hr (for determining TβR-II). Treated cells were lysed and cell lysates were analyzed by 7.5% SDS-PAGE and Western blot analysis using anti-Smad2, anti-P-Smad2, anti-caveolin-1, anti-TβR-I (alk5) or anti-TβR-II antibodies as described previously (30). The antigens on the blots were visualized by using horseradish peroxidase-conjugated anti-rabbit IgG antibody and the ECL system as described (30).
To determine if cholesterol suppresses TGF-β responsiveness by decreasing the ratio of TGF-β1 binding to TβR-II and TβR-I, we first determined the time course of the effect of cholesterol treatment on the ratio of ^125I-TGF-β1 binding to TβR-II and TβR-I in Mv1Lu cells. These cells were treated with 50 μg/ml cholesterol at 37° C. for several time periods. ^125I-TGF-β1 binding to TGF-β receptors was then determined by affinity labeling using the bifunctional cross-linking agent DSS (disuccinimidyl suberate) followed by 7.5% SDS-PAGE and autoradiography or quantified with a PhosphoImager. […] We then performed analysis of the effect of cholesterol treatment on TGF-β1 binding to TβR-I and TβR-II in several cell types. Mv1Lu, BAEC, and NRK cells were treated for 1 hr with increasing concentrations of cholesterol in the presence and absence of 0.2% β-cyclodextrin (β-CD, which forms water-soluble complexes with cholesterol) at 37° C. The binding of TGF-β1 to TβR-I and TβR-II in these cells was then determined by ^125I-TGF-β1 affinity labeling at 0° C.

Mv1Lu cells = assay: Cell viability under the experimental conditions, Mv1Lu cells; type: cell-based, mink; conditions: conditions of the thymidine incorporation or affinity labeling experiment
Procedure: The growth of cholesterol-treated cells was determined by measurement of [methyl-^3H]thymidine incorporation into cellular DNA as described (30). Briefly, cells grown near confluence on 48-well clustered dishes were treated with several concentrations of cholesterol at 37° C. for 1 hr in serum-free DMEM. The final concentration of ethanol (the vehicle for cholesterol) in the medium was 0.2%. Treated cells were then incubated with 0.0625 pM or 0.125 pM of TGF-β1 in DMEM containing 0.1% fetal calf serum at 37° C. for 18 hr. The [methyl-^3H]thymidine incorporation into cellular DNA was then determined by incubation of cells with [methyl-^3H]thymidine at 37° C. for 2 hr in DMEM containing 0.1% fetal calf serum. The optimal concentrations of TGF-β1 to inhibit cell growth are in the range of 0.1 to 1 pM.
To define the specificity of the cholesterol effect, we determined the effects of cholesterol analogs and derivatives on ^125I-TGF-β1 binding to TβR-I and TβR-II in Mv1Lu cells. These cells were treated with 50 μg/ml of cholesterol or related oxysterol derivatives (25-hydroxycholesterol, 7-dehydrocholesterol (7-DHC), oxidized 7-DHC (oxy-7-DHC), cholest-5-en-7-one, 7-ketocholesterol, 7β,8β-epoxycholestanol, and 7β-hydroxycholesterol) at 37° C. for 1 hr. ^125I-TGF-β1 binding to TGF-β receptors was then determined by affinity labeling.

With `CC(C)CCC[C@@H](C)[C@H]1CC[C@H]2[C@@H]3CC=C4C[C@@H](O)CC[C@]4(C)[C@H]3CC[C@]12C` [cholesterol] the “suppression of TGF-β1-stimulated PAI-1 expression” value (PAI-1 expression) was 50-80%, the “effect on the protein levels of TβR-I and TβR-II” value (TβR-I and TβR-II; data not shown) was “did not affect” and the “effect on the total amount of TβR-II protein” value (TβR-I and TβR-II; cholesterol alone) was “did not affect”. For the same compound, the “effect on cell viability” value (Mv1Lu cells) was “did not appear to affect”.
